Test results as given in US5844001A, “Combination platinum chemotherapeutic/antiestrogen therapy for human cancers” (Research Development Foundation, priority 1994, dated 1998).
Where two headings read alike, the source gives them in different places.

Key:
[1] = tested on: UM-SCC-5 head and neck carcinoma cells; assay: Development of cisplatin resistance with or without tamoxifen, UM-SCC-5 (clonogenic assay); format: cell-based, human
Protocol: (§1) The UM-SCC-10B and UM-SCC-5 cell lines were derived from human squamous cell carcinomas of the in head and neck region. Cells were cultured at 37° C. in humidified 5% CO2 in 150 cm^2 flasks (Corning, Corning, N.Y.) with RPMI 1640 medium (Mediatech Inc., Herndon, Va.) containing 10% fetal bovine serum (Gemini Bioproducts Inc., Calabasas, Calif.), 2 mM L-glutamine, 100 units/ml of penicillin and 100 μg/ml of streptomycin sulfate. The sensitivity of the UM-SCC-10B and UM-SCC-5 cell lines and their cDDP-resistant variants to cDDP, TAM and the combination of both agents was tested by colony forming assay. Single-cell suspension were plated into 60 mm tissue culture dishes (Corning) at 300 cells per dish. Following drug exposure, the cultures were washed twice with PBS to remove cDDP, 5 ml of fresh medium was added, and they were incubated for 13-15 days to allow formation of colonies. Colonies were fixed with methanol, stained with Giemsa stain for 60 minutes, and counted manually.
(§2) Cells were cultured in drug-free medium for two weeks prior to being tested for drug sensitivity.

[2] = tested on: UM-SCC-10B head and neck carcinoma cells; assay: Development of cisplatin resistance with or without tamoxifen, UM-SCC-10B (clonogenic assay); format: cell-based, human; conditions: for effect on development of cisplatin resistance: tamoxifen present during selection, in words
Protocol: as §1, §2

[3] = tested on: UM-SCC-10B cells; assay: Colony forming assay, parental UM-SCC-10B; format: cell-based, human
Protocol: (§3) The UM-SCC-10B and UM-SCC-5 cell lines were derived from human squamous cell carcinomas of the in head and neck region. […] The sensitivity of the UM-SCC-10B and UM-SCC-5 cell lines and their cDDP-resistant variants to cDDP, TAM and the combination of both agents was tested by colony forming assay. Single-cell suspension were plated into 60 mm tissue culture dishes (Corning) at 300 cells per dish. […] Colonies were fixed with methanol, stained with Giemsa stain for 60 minutes, and counted manually.
(§4) Median effect analysis was used to assess the interaction between cDDP and TAM using a schedule of one hour exposure to cDDP and continuous exposure to TAM. After seeding the cells into 60 mm tissue culture dishes at 300 cells per dish in fresh medium and allowing 5 hours for them to attach, TAM was added. For the combined treatment, cDDP was added to the dishes 24 hours after seeding the cells. […] After incubation the dishes were washed twice with phosphate-buffered saline and fresh medium containing the appropriate concentration of TAM was added. In synergy experiments, dose-response curves for the single agents were initially generated. The extend of the combined treatment was then analyzed by the isobole method for a combination of cDDP and TAM from the equation

[4] = tested on: UM-SCC-5 cells; assay: Colony forming assay, parental UM-SCC-5; format: cell-based, human
Protocol: as §3, §4

[5] = tested on: T-289 melanoma cells; assay: Development of DDP resistance with or without TAM, T-289 (colony formation); format: cell-based, human
[6] = tested on: cell lines of human origin; assay: Synergy of TAM and DDP: timing and mechanism observations; format: cell-based
[7] = Toxicities with DDP or DDP/TAM treatment (clinical trial); conditions: in words
Description: (§5) Entry requirements included histologically documented melanoma, measurable disease, signed informed consent, and no anti-tumor therapy during the previous 4 weeks. Patients were required to have normal hematologic and renal function, an ECOG performance status of 0-2 and an estimated survival of at least 3 months. Patients with a previous history of deep venous thrombosis or pulmonary embolism were excluded.
(§6) Pre-treatment hydration consisted of 1 liter of 5% dextrose/0.45%saline containing 20 mEq of potassium chloride and 2 g magnesium sulfate administered over 4 hours. […] Patients were retreated every 3 weeks. On cycles where TAM was administered, 40 mg p.o. four doses per day were given on day 1 followed by 20 mg p.o. daily thereafter. The initial 7 patients were treated with a combination of lorazepam, metaclopramide, benadryl and dexamethasone to control nausea and vomiting. Subsequent patients received an ondansetron-based regimen.

[8] = tested on: melanoma; conditions: 203 treated melanoma patients; cited from earlier work
[9] = Steady-state plasma concentration of TAM; format: in vivo, human (patients); conditions: predicted from in vitro data
Protocol: The design of the study of Example 1 itself was biased against response and the response rate in other settings would be higher. […] Chronic administration of TAM at 10 mg p.o. twice a day produces steady-state plasma concentrations in the range of 0.29 μM. However, the in vitro data predicts that plasma concentrations of more than 0.5 μM will be necessary in DDP-resistant patients.

[10] = human, in vivo
Description: as §5, §6

[11] = tested on: melanoma; assay: Clinical trial: tumor response to DDP alone, then TAM/DDP after DDP resistance; format: in vivo, human (patients)
Description: A complete response was defined as the complete disappearance of all evidence of disease for at least 4 weeks. A partial response was a decrease in the mean diameter of the target lesion by 50% or more lasting at least 4 weeks. A mixed response was a decrease in the diameter of some target lesions of 50% or more while others remained stable or increased in size. A stable disease was defined as a <50% decrease or <25% increase in the size of target lesions for at least 2 months without the growth or appearance of other lesions. A progressive disease was defined as an increase in the size of target lesions by 25% or more.
Patients were retreated every 3 weeks. […] Subsequent patients received an ondansetron-based regimen.

[12] = Homo sapiens, read-out: IC50, continuous tamoxifen exposure
[13] = number of patients, DDP n=24, TAM/DDP n=20
[14] = read-out: IC50, one hour exposure to cisplatin

For `CC/C(=C(\c1ccccc1)c1ccc(OCCN(C)C)cc1)c1ccccc1` [tamoxifen], the “effect on slope for emergence of cisplatin resistance” value ([1]; UM-SCC-5, tamoxifen present during selection, in words) was “no effect”, the “reduction of slope of regression line by tamoxifen” value ([2]; UM-SCC-10B) was “more than 40%” and the “effect on development of cisplatin resistance” value ([2]; UM-SCC-10B) was “delayed the emergence of cisplatin resistance significantly”. The “effect on development of cisplatin resistance” value ([2]; UM-SCC-10B, listed as TAM) was “delay the development of DDP resistance”, the IC50 [3, 12] was 3.56 ± 0.41 µM and the IC50 [4, 12] was 3.22 ± 0.54 µM. The “effect on development of DDP resistance” value ([5]; T-289, TAM given concurrently, in words) was “delay the development of DDP resistance”, the “synergy with DDP when TAM is added after DDP” value ([6]; TAM added up to 48 hours after end of 1 hour DDP exposure) was “can produce synergy with DDP” and the “effect of tamoxifen on known mechanisms of cisplatin resistance” value ([6]; drug uptake, glutathione or metallothionein levels, DNA intrastrand adduct formation or repair) was “not due to an effect of tamoxifen on the known mechanisms of cisplatin resistance”. For the same molecule, the nephrotoxicity [7] was “uncommon and unaffected by the administration of TAM”, the “toxicity on addition of TAM to single agent DDP” value [7] was “No increased toxicity” and the nausea and vomiting ([7]; during hospitalization for ondansetron) was “did not increase nausea or vomiting”. The “response rate, single agent TAM therapy” value [8] was 6% and the “plasma concentration predicted necessary in DDP-resistant patients” value [9] was “more than 0.5 μM”.
With `Cc1nccn1CC1CCc2c(c3ccccc3n2C)C1=O` (centres unmarked) [ondonsetron, ondansetron] the nausea and vomiting [10] was “markedly reduced nausea and vomiting”.
For `N.N.[Cl][Pt][Cl]` [cisplatin, cis-diamminedichloroplatinum (II)], the IC50 ([1]; UM-SCC-5 selected in cisplatin, one hour cisplatin exposure, read-out: IC50 after the fifteenth selection) was 20.1 ± 1.2 µM, the IC50 ([2]; UM-SCC-10B selected in cisplatin, one hour cisplatin exposure, read-out: IC50 after the fifteenth selection) was 40.1 ± 1.2 µM and the “duration of complete response” value ([11]; DDP alone) was “more than 15 months”. For the same molecule, the “duration of partial response (stable off treatment)” value ([11]; DDP alone, one patient) was at least 6 months, the “time to progression of patient with partial response” value ([11]; DDP alone, the other patient) was 4 months and the “Mixed Response” value ([11]; number of patients) was 0 patients. The “Progressive Disease” value ([11]; number of patients) was 19 patients, the “Stable Disease” value ([11]; number of patients) was 2 patients and the “Complete Response” value [11, 13] was 1 patients. For the same molecule, the “Partial Response” value [11, 13] was 2 patients, the “Complete Response” value ([11]; number of patients, DDP n=24, TAM/DDP n=20, listed as DDP) was “One” and the “Progressive Disease” value ([11]; number of patients, listed as DDP) was 17 patients. The “Complete Response (%)” value ([11]; percent of patients) was 4%, the “Partial Response (%)” value ([11]; percent of patients) was 8% and the IC50 [3, 14] was 6.5 ± 0.6 µM. The IC50 [4, 14] was 7.2 ± 1.5 µM and the “time at which DDP resistance became apparent” value ([5]; T-289 selection) was 200 days.
